# System: KMS-11 cells (human multiple myeloma cell)
# Test: Antitumor effect against KMS-11 cells transplanted subcutaneously into SCID mice (tumor volume V/V0, T/C)
# Assay type: in vivo
# Details: SCID mouse, KMS-11 xenograft, KM8969 1 mg/kg, L-PAM 3 mg/kg, tail vein
# Description: Ten days after the cell transplantation, a diameter of a tumor was measured with calipers, and a tumor volume was calculated using the following formula.
# (Formula) Tumor volume=short diameter×short diameter […]×0.5
# Individuals having the tumor volume within the range of 140 to 184 mm^3 were selected, and grouped such that the average of tumor volume was to be almost the same. Each of following administration groups A to D was administered to the mice. Incidentally, the grouped day was defined as Day 0.
# C. Group administering Melphalan (hereinafter referred to as L-PAM; Sigma) solely: 3 mg/kg was administered on Day 0 and Day 7.
# With time, the tumor volume was measured. The antitumor effect was evaluated by comparing average values of a tumor volume change (V/V0) when the tumor volume on Day 0 in each group was defined as V0.
compound,measurement,setting,value
"N[C@@H](Cc1ccc(N(CCCl)CCCl)cc1)C(=O)O [L-PAM, Melphalan]",T/C (V/V0 of group divided by V/V0 of negative control group),Day 0,1.0000
same,T/C (V/V0 of group divided by V/V0 of negative control group),Day 4,0.8624
same,T/C (V/V0 of group divided by V/V0 of negative control group),Day 7,0.8354
same,T/C (V/V0 of group divided by V/V0 of negative control group),Day 10,0.6430
same,T/C (V/V0 of group divided by V/V0 of negative control group),Day 14,0.5255
same,T/C (V/V0 of group divided by V/V0 of negative control group),Day 17,0.4159
same,T/C (V/V0 of group divided by V/V0 of negative control group),Day 21,0.2881
same,T/C (V/V0 of group divided by V/V0 of negative control group),Day 24,0.2872
same,T/C (V/V0 of group divided by V/V0 of negative control group),Day 28,0.2348
